From the NIST ThermoML archive (doi:10.1016/j.jct.2016.03.026)
“And” between values parts separate entries of the source, which are not always exact repeats. Identical values can stand only once. Numbers after ± are expanded uncertainties.

Experiment: xn = mol fraction of the nth substance listed
Settings: Fluid (supercritical or subcritical phases), Frequency=5 MHz, Pulse-echo method

O=C=O [carbon dioxide] + CO
Settings | speed of sound
298.13 K, 40050 kPa, x1 = 0.7534 | 817.8 ± 1.1 m/s
298.13 K, 44960 kPa, x1 = 0.925 | 802 ± 1.1 m/s
298.13 K, 44980 kPa, x1 = 0.925 | 802.5 ± 1.1 m/s
298.13 K, 45000 kPa, x1 = 0.8502 | 812.9 ± 1.1 m/s
298.13 K, 45000 kPa, x1 = 0.925 | 803.5 ± 1.1 m/s
298.13 K, 45020 kPa, x1 = 0.7534 | 848.9 ± 1.1 m/s
298.13 K, 45020 kPa, x1 = 0.925 | 803 ± 1.1 m/s
298.13 K, 49980 kPa, x1 = 0.925 | 832.4 ± 1.1 m/s and 833.5 ± 1.1 m/s
298.13 K, 49990 kPa, x1 = 0.925 | 832.8 ± 1.1 m/s
298.13 K, 50010 kPa, x1 = 0.925 | 833.6 ± 1.1 m/s
298.13 K, 50070 kPa, x1 = 0.7534 | 878.2 ± 1.2 m/s
298.13 K, 50080 kPa, x1 = 0.8502 | 843 ± 1.1 m/s
298.13 K, 54890 kPa, x1 = 0.7534 | 904.5 ± 1.2 m/s
298.13 K, 54910 kPa, x1 = 0.8502 | 869.9 ± 1.1 m/s
298.13 K, 54940 kPa, x1 = 0.925 | 860.9 ± 1.1 m/s
298.13 K, 54950 kPa, x1 = 0.925 | 860.2 ± 1.1 m/s
298.13 K, 54970 kPa, x1 = 0.925 | 861.2 ± 1.1 m/s
298.13 K, 55000 kPa, x1 = 0.925 | 860.7 ± 1.1 m/s
298.13 K, 59950 kPa, x1 = 0.8502 | 896.4 ± 1.2 m/s
298.13 K, 59970 kPa, x1 = 0.925 | 886.8 ± 1.2 m/s
298.13 K, 60000 kPa, x1 = 0.925 | 887 ± 1.2 m/s
298.13 K, 60010 kPa, x1 = 0.925 | 887.7 ± 1.2 m/s
298.13 K, 60020 kPa, x1 = 0.925 | 887.7 ± 1.2 m/s
298.13 K, 60230 kPa, x1 = 0.7534 | 932.1 ± 1.2 m/s
298.13 K, 64680 kPa, x1 = 0.7534 | 953.8 ± 1.2 m/s
298.13 K, 64950 kPa, x1 = 0.925 | 912 ± 1.2 m/s
298.13 K, 64960 kPa, x1 = 0.925 | 911.8 ± 1.2 m/s
298.13 K, 64990 kPa, x1 = 0.925 | 912.4 ± 1.2 m/s
298.13 K, 65010 kPa, x1 = 0.925 | 911.9 ± 1.2 m/s
298.13 K, 65100 kPa, x1 = 0.8502 | 922 ± 1.2 m/s
298.13 K, 69930 kPa, x1 = 0.8502 | 944.8 ± 1.2 m/s
298.13 K, 69960 kPa, x1 = 0.925 | 935.2 ± 1.2 m/s
298.13 K, 69970 kPa, x1 = 0.925 | 935.8 ± 1.2 m/s
298.13 K, 69980 kPa, x1 = 0.925 | 935.3 ± 1.2 m/s
298.13 K, 70000 kPa, x1 = 0.925 | 936 ± 1.2 m/s
298.13 K, 70030 kPa, x1 = 0.7534 | 978.8 ± 1.3 m/s
298.13 K, 74960 kPa, x1 = 0.925 | 957.7 ± 1.2 m/s
298.13 K, 74970 kPa, x1 = 0.925 | 957.9 ± 1.2 m/s and 958.4 ± 1.2 m/s
298.13 K, 75000 kPa, x1 = 0.925 | 958.5 ± 1.2 m/s
298.13 K, 75120 kPa, x1 = 0.8502 | 968.2 ± 1.3 m/s
298.13 K, 75550 kPa, x1 = 0.7534 | 1003.2 ± 1.3 m/s
298.13 K, 79950 kPa, x1 = 0.925 | 979.9 ± 1.3 m/s
298.13 K, 79970 kPa, x1 = 0.925 | 979.7 ± 1.3 m/s
298.13 K, 79990 kPa, x1 = 0.8502 | 989 ± 1.3 m/s
298.13 K, 79990 kPa, x1 = 0.925 | 979.4 ± 1.3 m/s
298.13 K, 80530 kPa, x1 = 0.7534 | 1024.4 ± 1.3 m/s
298.13 K, 89880 kPa, x1 = 0.8502 | 1029.2 ± 1.3 m/s
298.13 K, 89960 kPa, x1 = 0.925 | 1019.7 ± 1.3 m/s
298.13 K, 89980 kPa, x1 = 0.925 | 1020.4 ± 1.3 m/s
298.13 K, 90000 kPa, x1 = 0.925 | 1020 ± 1.3 m/s and 1020.4 ± 1.3 m/s
298.13 K, 90430 kPa, x1 = 0.7534 | 1064.1 ± 1.4 m/s
298.13 K, 99830 kPa, x1 = 0.7534 | 1098.9 ± 1.4 m/s
298.13 K, 99970 kPa, x1 = 0.925 | 1057.9 ± 1.4 m/s
298.13 K, 99990 kPa, x1 = 0.925 | 1057.5 ± 1.4 m/s
298.13 K, 100010 kPa, x1 = 0.8502 | 1067.3 ± 1.4 m/s
298.13 K, 100010 kPa, x1 = 0.925 | 1057.5 ± 1.4 m/s
298.13 K, 100040 kPa, x1 = 0.925 | 1057.3 ± 1.4 m/s
298.13 K, 109890 kPa, x1 = 0.8502 | 1102.7 ± 1.4 m/s
298.13 K, 109950 kPa, x1 = 0.925 | 1092.7 ± 1.4 m/s
298.13 K, 109980 kPa, x1 = 0.925 | 1093.2 ± 1.4 m/s
298.13 K, 109990 kPa, x1 = 0.925 | 1092.8 ± 1.4 m/s and 1093.2 ± 1.4 m/s
298.13 K, 110320 kPa, x1 = 0.7534 | 1136.1 ± 1.5 m/s
298.13 K, 119500 kPa, x1 = 0.8502 | 1135.1 ± 1.5 m/s
298.13 K, 119930 kPa, x1 = 0.925 | 1126 ± 1.4 m/s
298.13 K, 119960 kPa, x1 = 0.925 | 1126.1 ± 1.4 m/s
298.13 K, 119990 kPa, x1 = 0.925 | 1125.8 ± 1.4 m/s
298.13 K, 120000 kPa, x1 = 0.925 | 1126 ± 1.4 m/s
298.13 K, 120120 kPa, x1 = 0.7534 | 1168.5 ± 1.5 m/s
298.13 K, 129960 kPa, x1 = 0.925 | 1157.1 ± 1.5 m/s
298.13 K, 129970 kPa, x1 = 0.925 | 1157.2 ± 1.5 m/s and 1157.6 ± 1.5 m/s
298.13 K, 130000 kPa, x1 = 0.925 | 1157.5 ± 1.5 m/s
298.13 K, 139110 kPa, x1 = 0.7534 | 1226.8 ± 1.6 m/s
298.13 K, 139980 kPa, x1 = 0.925 | 1186.8 ± 1.5 m/s and 1187.3 ± 1.5 m/s
298.13 K, 139990 kPa, x1 = 0.925 | 1187.1 ± 1.5 m/s
298.13 K, 140030 kPa, x1 = 0.925 | 1187.4 ± 1.5 m/s
298.13 K, 140060 kPa, x1 = 0.8502 | 1198.2 ± 1.5 m/s
298.13 K, 149950 kPa, x1 = 0.925 | 1215.3 ± 1.6 m/s and 1215.7 ± 1.6 m/s
298.13 K, 149960 kPa, x1 = 0.925 | 1215.5 ± 1.6 m/s
298.13 K, 149990 kPa, x1 = 0.925 | 1215.1 ± 1.6 m/s
298.13 K, 159590 kPa, x1 = 0.7534 | 1284.3 ± 1.6 m/s
298.13 K, 159960 kPa, x1 = 0.925 | 1242.8 ± 1.6 m/s
298.13 K, 159970 kPa, x1 = 0.925 | 1242.8 ± 1.6 m/s
298.13 K, 159980 kPa, x1 = 0.925 | 1242.2 ± 1.6 m/s
298.13 K, 159990 kPa, x1 = 0.925 | 1242.6 ± 1.6 m/s
298.13 K, 160550 kPa, x1 = 0.8502 | 1255.2 ± 1.6 m/s
298.13 K, 169970 kPa, x1 = 0.925 | 1268.9 ± 1.6 m/s
298.13 K, 169980 kPa, x1 = 0.925 | 1268.9 ± 1.6 m/s
298.13 K, 169990 kPa, x1 = 0.925 | 1268.1 ± 1.6 m/s
298.13 K, 170010 kPa, x1 = 0.925 | 1268.7 ± 1.6 m/s
298.13 K, 178270 kPa, x1 = 0.8502 | 1301.3 ± 1.7 m/s
298.13 K, 179990 kPa, x1 = 0.925 | 1293.2 ± 1.6 m/s
298.13 K, 180020 kPa, x1 = 0.925 | 1293.8 ± 1.6 m/s and 1294 ± 1.6 m/s
298.13 K, 180060 kPa, x1 = 0.925 | 1294.1 ± 1.6 m/s
298.13 K, 180370 kPa, x1 = 0.7534 | 1338.1 ± 1.7 m/s
298.13 K, 189940 kPa, x1 = 0.925 | 1316.8 ± 1.7 m/s
298.13 K, 189950 kPa, x1 = 0.925 | 1317.9 ± 1.7 m/s
298.13 K, 189970 kPa, x1 = 0.925 | 1317.8 ± 1.7 m/s
298.13 K, 190010 kPa, x1 = 0.925 | 1317.9 ± 1.7 m/s
298.14 K, 44940 kPa, x1 = 0.9803 | 798 ± 1.1 m/s
298.14 K, 50050 kPa, x1 = 0.9803 | 829.6 ± 1.1 m/s
298.14 K, 54980 kPa, x1 = 0.9803 | 857.8 ± 1.1 m/s
298.14 K, 60140 kPa, x1 = 0.9803 | 885.4 ± 1.2 m/s
298.14 K, 64990 kPa, x1 = 0.9803 | 909.9 ± 1.2 m/s
298.14 K, 70210 kPa, x1 = 0.9803 | 935 ± 1.2 m/s
298.14 K, 75300 kPa, x1 = 0.9803 | 958.1 ± 1.2 m/s
298.14 K, 80240 kPa, x1 = 0.9803 | 979.6 ± 1.3 m/s
298.14 K, 89800 kPa, x1 = 0.9803 | 1018.7 ± 1.3 m/s
298.14 K, 100450 kPa, x1 = 0.9803 | 1059.1 ± 1.4 m/s
298.14 K, 109890 kPa, x1 = 0.9803 | 1092.5 ± 1.4 m/s
298.14 K, 120160 kPa, x1 = 0.9803 | 1126.5 ± 1.4 m/s
298.14 K, 130400 kPa, x1 = 0.9803 | 1158.4 ± 1.5 m/s
298.14 K, 139810 kPa, x1 = 0.9803 | 1185.8 ± 1.5 m/s
298.14 K, 150170 kPa, x1 = 0.9803 | 1215.7 ± 1.6 m/s
298.14 K, 160470 kPa, x1 = 0.9803 | 1243.6 ± 1.6 m/s
304.19 K, 24950 kPa, x1 = 0.97 | 621 ± 0.9 m/s
304.19 K, 29960 kPa, x1 = 0.97 | 668.7 ± 1 m/s
304.19 K, 34880 kPa, x1 = 0.97 | 709.6 ± 1 m/s
304.19 K, 39930 kPa, x1 = 0.97 | 747.2 ± 1 m/s
304.19 K, 44970 kPa, x1 = 0.97 | 781.3 ± 1.1 m/s
304.19 K, 50020 kPa, x1 = 0.97 | 812.8 ± 1.1 m/s
304.19 K, 54970 kPa, x1 = 0.97 | 841.5 ± 1.1 m/s
304.19 K, 59970 kPa, x1 = 0.97 | 868.6 ± 1.1 m/s
